According to PMC12744750 (Plant Communications, 2025):

Key:
[1] = Titration of PLS in the presence of BCA2-Cu(I) complex; format: binding; conditions: PLS serially diluted from 496 µM to 214 nM; 125 µM BCA, 50 µM CuCl, 50 mM HEPES, 150 mM NaCl, 20 mM ascorbate, pH 7.6; A562 nm, n = 3
Protocol: Figure S9. Titration of PLS in the presence of BCA2-Cu(I)-Complex.
A solution of synthetic PLS in 50 µl buffer (50 mM HEPES, 150 mM NaCl, pH 7.6) was serially diluted from 496 µM to 214 nM. After the addition of 50 µl BCA2-Cu(I) buffer (50 mM HEPES, 150 mM NaCl, 20 mM ascorbate, 125 µM BCA, 50 µM CuCl, pH 7.6) the absorbance at 562 nm was measured. Discoloration of the pink BCA2-Cu(I) complex visible in the decrease of absorption at higher peptide concentration indicates […]
chelator BCA. Bars represent means ± SD, n = 3.
(1 picture or pasted object on this page, not shown here)

[2] = tested on: ETR1:HA; test: Co-IP competition: synthetic PLS vs PLS:GFP binding to ETR1:HA in N. benthamiana leaves; parameters: species or system Arabidopsis; conditions: 25 nM synthetic PLS(FL), 0.5 μM CuSO4, 50 μM MG-132, 30 min before tissue harvest
Description: To investigate the interaction between the PLS peptide and the ethylene receptor ETR1, two DNA constructs were created by Gateway cloning. The […] PLS gene (without the stop codon) was inserted into the pEarlyGate103 (pEG103) destination vector, which contained the pro35S promoter and a C-terminal GFP tag, to produce a vector containing pro35S::PLS:GFP DNA. The ETR1 cDNA was inserted into the pEarlyGate301 (pEG301) vector to create a pro35S::ETR1:HA construct to express an ETR1 protein with a C-terminal HA tag. pro35S::GFP was used as a control. The primers used to clone ETR1 and PLS are found in supplemental Table 9.
Constructs were transiently expressed in N. benthamiana (tobacco) leaves as described previously ([Voinnet et al., 2003]). Experiments were replicated up to five times. Competent Agrobacterium tumefaciens GV3101 cells were transformed with the desired plasmid containing the gene of interest and injected with a syringe. The plants were approximately 7–10 weeks old; the chosen leaves were healthy and 3–6 cm in length, and 3 to 4 leaves were infiltrated with each construct. […]
SDS–PAGE was used to separate protein fragments. The complexed proteins from the pulldown assay were analyzed on 10%–12% acrylamide gels. […] The horseradish peroxidase conjugated to the secondary antibody was detected using X-ray film. […]

Substance: PLS(FL): full-length 36-amino-acid PLS peptide from Arabidopsis (MKPRLCFNFRRRSISPCYISISYLLVAKLFKLFKIH)
- competition for copper with BCA [1]: able to effectively compete and remove copper
- reduction in PLS:GFP binding to ETR1:HA [2]: ~80%
